From patent US10155754B2, “Substituted 2-imino-1,3-thiazolidin-4-ones as N-arachidonoylethanolamine cellular uptake inhibitors” (UNIVERSITAT BERN, priority 2014, dated 2018)

What follows are compounds tested on AEA cellular uptake (U937 cells) (assay: [3H]-AEA cellular uptake inhibition in U937 cells). Conditions: Homo sapiens, U-937, U937 cells, final 100 nM AEA with 0.5 nM [3H]-AEA, 15 min at 37° C.; read-out: AEA uptake IC50.
Assay type: cell-based
Description: [^3H]-AEA Cellular Uptake
Screening for AEA cellular uptake inhibition was performed in a semi-automated procedure: Pipetting and washing steps were performed by a Biomek3000 laboratory workstation. First, required amounts of U937 cells were centrifuged at 100×g for 5 min and resuspended in RPMI (37° C.) to a final concentration of 2×10^6 cells/mL. Then, 250 μL of cell suspension (0.5×10^6 cells per sample) were transferred into AquaSil™ silanized glass vials (Chromacol 1.1-MTV) in 96-well format. After addition of 5 μL vehicle (DMSO) or compounds the cells were incubated at 37° C. for 15 min. As positive controls OMDM-2 and UCM707 were used at 10 μM in each run. The ETI-T compounds were measured at up to 7 concentrations in triplicates from 100 pM-100 μM. After pre-incubation, a mixture of 0.5 nM [ethanolamine-1-^3H]-AEA, (60 Ci/mmol) and 99.5 nM of cold AEA (final 100 nM) was added and samples were incubated at 37° C. for another 15 min. The reaction was stopped by rapid filtration over UniFilter-96 GF/C filters (PerkinElmer) pre-soaked with PBS 0.25% BSA. Cells were washed three times with 100 μL ice-cold PBS buffer containing 1% fatty acid free BSA. After drying, 45 μL MicroScint 20 scintillation cocktail (PerkinElmer, Waltham, Mass., US) was added to the wells and the plate was sealed. Radioactivity was measured by liquid scintillation counting on a PerkinElmer Wallac Trilux MicroBeta 1450 during 2 min. Non-specific binding of [^3H]AEA (100 nM) to the glass vials was never higher than 10%. IC50 values were calculated by GraphPad® by non-linear regression using the built-in log(inhibitor) vs. response-variable slope (four parameters) function.

Row | Compound | IC50
1 | O=C1/C(=C/c2ccc3c(c2)OCCO3)S/C(=N\c2ccc(F)cc2)N1c1ccccc1 [24_B_N, (2Z,5Z)-2-(4-fluorophenylimino)-5-((2,3-dihydrobenzo[b][1,4]dioxin-6-yl)methylene)-3-phenylthiazolidin-4-one] | 0.419 µM
2 | Cc1ccc(/N=C2\S/C(=C\c3ccc4[nH]cnc4c3)C(=O)N2c2ccccc2)nc1 [04_D_N, (2Z,5Z)-5-((1H-benzo[d]imidazol-5-yl)methylene)-2-(5-methylpyridin-2-ylimino)-3-phenylthiazolidin-4-one] | 1.59 µM
3 | COc1ccc(C/N=C2\S/C(=C\c3ccccc3)C(=O)N2c2ccccc2)cc1 [23_Q_N, (2Z,5Z)-2-(4-methoxybenzylimino)-5-benzylidene-3-phenylthiazolidin-4-one] | 0.598 µM
4 | O=C1/C(=C/c2ccccc2)S/C(=N\Cc2ccccc2Cl)N1c1ccccc1 [23_T_N, (2Z,5Z)-2-(2-chlorobenzylimino)-5-benzylidene-3-phenylthiazolidin-4-one] | 0.556 µM
5 | O=C1/C(=C/c2ccc3c(c2)OCCO3)S/C(=N\CCCc2ccccc2)N1c1ccccc1 [24_K_N, (2Z,5Z)-2-(3-phenylpropylimino)-5-((2,3-dihydrobenzo[b][1,4]dioxin-7-yl)methylene)-3-phenylthiazolidin-4-one] | 1.62 µM
6 | Cc1ccc(N2C(=O)/C(=C/c3ccc4c(c3)OCCO4)S/C2=N\c2ccc(F)cc2)cc1 [24_B_A, (2Z,5Z)-2-(4-fluorophenylimino)-5-((2,3-dihydrobenzo[b][1,4]dioxin-6-yl)methylene)-3-p-tolylthiazolidin-4-one] | 0.176 µM
7 | O=C1/C(=C/c2ccc(CO)cc2)S/C(=N\Cc2ccccc2)N1c1ccccc1 [22_C_N, (2Z,5Z)-5-(4-(hydroxymethyl)benzylidene)-2-(benzylimino)-3-phenylthiazolidin-4-one] | 1.66 µM
8 | COCc1cccc(/C=C2\S/C(=N\Cc3ccccc3Cl)N(c3ccccc3)C2=O)c1 [15_T_N, (2Z,5Z)-2-(2-chlorobenzylimino)-5-(3-(methoxymethyl)benzylidene)-3-phenylthiazolidin-4-one] | 2.64 µM
9 | CC(C)CN1C(=O)/C(=C/c2ccccc2)S/C1=N\c1ccc(F)cc1 [23_B_X, (2Z,5Z)-2-(4-fluorophenylimino)-5-benzylidene-3-isobutylthiazolidin-4-one] | 1.13 µM
10 | CC(C)CN1C(=O)/C(=C/c2ccc3ncsc3c2)S/C1=N\c1ccc(F)cc1 [32_B_X, (2Z,5Z)-2-(4-fluorophenylimino)-5-((benzo[d]thiazol-6-yl)methylene)-3-isobutylthiazolidin-4-one] | 0.993 µM
11 | O=C1/C(=C/c2ccc3[nH]ccc3c2)S/C(=N\c2ccccc2)N1c1ccccc1 [compound 03, (2Z,5Z)-5-((1H-indol-5-yl)methylene)-3-phenyl-2-(phenylimino)thiazolidin-4-one] | 0.731 µM

Next, values leading:

Row | IC50 | Compound
12 | 1.51 µM | Cc1ccc(/N=C2\S/C(=C\c3ccc4c(c3)OCCO4)C(=O)N2c2ccccc2)cc1 [24_A_N, (2Z,5Z)-2-(p-tolylimino)-5-((2,3-dihydrobenzo[b][1,4]dioxin-6-yl)methylene)-3-phenylthiazolidin-4-one]
13 | 0.578 µM | CC(C)CN1C(=O)/C(=C/c2ccc3[nH]cnc3c2)S/C1=N\c1ccc(F)cc1 [04_B_X, (2Z,5Z)-5-((1H-benzo[d]imidazol-5-yl)methylene)-2-(4-fluorophenylimino)-3-isobutylthiazolidin-4-one]
14 | 0.878 µM | O=C1/C(=C/c2ccc3[nH]cnc3c2)S/C(=N\Cc2cccnc2)N1c1ccccc1 [04_S_N, (2Z,5Z)-2-((pyridin-3-yl)methylimino)-5-((1H-benzo[d]imidazol-5-yl)methylene)-3-phenylthiazolidin-4-one]
15 | > 10 µM | COc1ccc(N2C(=O)/C(=C/c3ccc(CO)cc3)S/C2=N\c2ccccc2)cc1 [22_N_F, (2Z,5Z)-5-(4-(hydroxymethyl)benzylidene)-3-(4-methoxyphenyl)-2-(phenylimino)thiazolidin-4-one]
16 | 0.557 µM | CCCCN1C(=O)/C(=C/c2ccc3[nH]cnc3c2)S/C1=N\c1ccccc1 [04_N_G, (2Z,5Z)-5-((1H-benzo[d]imidazol-5-yl)methylene)-3-butyl-2-(phenylimino)thiazolidin-4-one]
17 | 1.02 µM | O=C1/C(=C/c2ccc3[nH]cnc3c2)S/C(=N\Cc2ccc(F)cc2)N1c1ccccc1 [04_P_N, (2Z,5Z)-5-((1H-benzo[d]imidazol-5-yl)methylene)-2-(4-fluorobenzylimino)-3-phenylthiazolidin-4-one]
18 | 2.17 µM | O=C1/C(=C/c2ccc(CO)cc2)S/C(=N\Cc2ccccc2)N1c1ccc(F)cc1 [22_C_B, (2Z,5Z)-5-(4-(hydroxymethyl)benzylidene)-2-(benzylimino)-3-(4-fluorophenyl)thiazolidin-4-one]
19 | 0.657 µM | O=C1/C(=C/c2ccc(CO)cc2)S/C(=N\c2ccccc2)N1Cc1ccccc1 [22_N_C, (2Z,5Z)-5-(4-(hydroxymethyl)benzylidene)-3-benzyl-2-(phenylimino)thiazolidin-4-one]
20 | 1.28 µM | CCCCN1C(=O)/C(=C/c2ccc(CO)cc2)S/C1=N\Cc1ccccc1 [22_C_G, (2Z,5Z)-5-(4-(hydroxymethyl)benzylidene)-2-(benzylimino)-3-butylthiazolidin-4-one]
21 | 1.03 µM | COCc1cccc(/C=C2\S/C(=N\c3ccccc3)N(c3ccccc3)C2=O)c1 [compound 15, (2Z,5Z)-5-(3-(methoxymethyl)benzylidene)-3-phenyl-2-(phenylimino)thiazolidin-4-one]
22 | 1.07 µM | COc1ccc(/N=C2\S/C(=C\c3ccc4[nH]ccc4c3)C(=O)N2c2ccccc2)cc1 [03_F_N, (2Z,5Z)-5-((1H-indol-5-yl)methylene)-2-(4-methoxyphenylimino)-3-phenylthiazolidin-4-one]
23 | > 10 µM | COCc1ccc(/C=C2\S/C(=N\c3ccccc3)N(c3ccccc3)C2=O)cc1 [compound 34, (2Z,5Z)-5-(4-(methoxymethyl)benzylidene)-3-phenyl-2-(phenylimino)thiazolidin-4-one]

Same assay, conditions: Homo sapiens, U-937, U937 cells, final 100 nM AEA with 0.5 nM [3H]-AEA, 15 min at 37° C.; read-out: AEA uptake inhibition IC50

Row | Compound | IC50
24 | O=C1/C(=C/c2ccc3[nH]cnc3c2)S/C(=N\c2ccccc2)N1Cc1ccco1 | 1.84 µM
25 | COCc1cccc(/C=C2\S/C(=N\Cc3ccccc3)N(c3ccccc3)C2=O)c1 [drawing 139] | 1.69 µM
26 | CCCCN1C(=O)/C(=C/c2ccc(OC)cc2)S/C1=N\c1ccccc1 | 2.27 µM
27 | O=C1/C(=C/c2ccc(CO)cc2)S/C(=N\c2ccccc2)N1c1ccccc1 [drawing 121] | 0.729 µM
28 | COc1ccc(/C=C2\S/C(=N\c3ccccc3)N(Cc3ccccc3)C2=O)cc1 | 2.29 µM
29 | COc1ccc(/N=C2\S/C(=C\c3ccccc3)C(=O)N2c2ccccc2)cc1 | 2.34 µM
30 | CCCCN1C(=O)/C(=C/c2ccc3[nH]ccc3c2)S/C1=N\c1ccccc1 | 0.677 µM
31 | O=C1/C(=C/c2ccc3sccc3c2)S/C(=N\c2ccccc2)N1c1ccccc1 | 4.63 µM
32 | CCCCN1C(=O)/C(=C/c2ccc(CO)cc2)S/C1=N\c1ccccc1 [drawing 158] | 1.09 µM

More lines, now with the values ahead:

Row | IC50 | Compound
33 | 3.18 µM | COc1ccc(/C=C2\S/C(=N\c3ccccc3)N(Cc3ccco3)C2=O)cc1
34 | 0.107 µM | Cc1ccc(/N=C2\S/C(=C\c3ccc4[nH]cnc4c3)C(=O)N2c2ccccc2)cc1 [drawing 144]
35 | 0.111 µM | Cc1ccc(/N=C2\S/C(=C\c3ccc(CO)cc3)C(=O)N2c2ccccc2)cc1 [drawing 141]
36 | 5.1 µM | COc1ccc(/C=C2\S/C(=N\c3ccc(C)cc3)N(c3ccccc3)C2=O)cc1
37 | 15.6 µM | COc1ccc(/C=C2\S/C(=N\c3ccccc3)N(c3ccccc3)C2=O)cn1
38 | 0.557 µM | CCCCN1C(=O)/C(=C/c2ccc3[nH]cnc3c2)S/C1=N\c1ccccc1 [drawing 154]
39 | 1.74 µM | COc1ccc(/C=C2\S/C(=N\c3ccc(OC)cc3)N(c3ccccc3)C2=O)cc1
40 | 2.12 µM | COc1ccc(/C=C2\S/C(=N\c3ccccc3)N(c3ccccc3)C2=O)cc1
41 | 0.61 µM | O=C1/C(=C/c2ccc3[nH]ccc3c2)S/C(=N\c2ccccc2)N1Cc1ccccc1
42 | 0.657 µM | O=C1/C(=C/c2ccc(CO)cc2)S/C(=N\c2ccccc2)N1Cc1ccccc1 [drawing 156]
43 | 1.81 µM | O=C1/C(=C/c2ccccc2)S/C(=N\c2ccccc2)N1Cc1ccco1

Same assay, conditions: U937 cells, final 100 nM AEA with 0.5 nM [3H]-AEA, 15 min at 37° C.; read-out: AEA uptake IC50

Row | IC50 | Compound
44 | 1.69 µM | COCc1cccc(/C=C2\S/C(=N\Cc3ccccc3)N(c3ccccc3)C2=O)c1 [15_C_N, (2Z,5Z)-5-(3-(methoxymethyl)benzylidene)-2-(benzylimino)-3-phenylthiazolidin-4-]
45 | 0.677 µM | (2Z,5Z)-5-((1H-benzo[d]imidazol-5-yl)methylene)-3-butyl-2-(phenylimino)thiazolidin-4- [03_N_G]
46 | 0.861 µM | O=C1/C(=C/c2ccc(CO)cc2)S/C(=N\c2ccccc2)N1CCCc1ccccc1 [22_N_K, (2Z,5Z)-5-(4-(hydroxymethyl)benzylidene)-2-(phenylimino)-3-(3-phenylpropyl)thiazolidin-4-]
